Experimental data as given in publication PMC6874179, “Development of Macrocycle Kinase Inhibitors for ALK2 Using Fibrodysplasia Ossificans Progressiva‐Derived Endothelial Cells” (JBMR Plus, 2019).

How the values were obtained:
RET_M918T = target: T1, RET_M918T (Homo sapiens, UniProt P07949, M918T); assay: Proqinase Kinase profiling; format: biochemical; conditions: read-out: % inhibition at 100nM
T1 construct: purchased DiscoverX

MAPKAPK5 = target: T2, MAPKAPK5 (Homo sapiens, UniProt Q8IW41); assay: Proqinase Kinase profiling; format: biochemical; conditions: read-out: % inhibition at 100nM
T2 construct: purchased DiscoverX

CAMK2A = target: T3, CAMK2A (Homo sapiens, UniProt Q9UQM7); assay: Proqinase Kinase profiling; format: biochemical; conditions: read-out: % inhibition at 100nM
T3 construct: purchased DiscoverX

MAP4K5 = target: T4, MAP4K5 (Homo sapiens, UniProt Q9Y4K4); assay: Proqinase Kinase profiling; format: biochemical; conditions: read-out: % inhibition at 100nM
T4 construct: purchased DiscoverX

CSNK1G1 = target: T5, CSNK1G1 (Homo sapiens, UniProt Q9HCP0); assay: Proqinase Kinase profiling; format: biochemical; conditions: read-out: % inhibition at 100nM
T5 construct: purchased DiscoverX

MAP3K3 = target: T6, MAP3K3 (Homo sapiens, UniProt Q99759); assay: Proqinase Kinase profiling; format: biochemical; conditions: read-out: % inhibition at 100nM
T6 construct: purchased DiscoverX

STK24 = target: T7, STK24 (Homo sapiens, UniProt Q9Y6E0); assay: Proqinase Kinase profiling; format: biochemical; conditions: read-out: % inhibition at 100nM
T7 construct: purchased DiscoverX

ADRBK1 = target: T8, ADRBK1 (Homo sapiens, UniProt P25098); assay: Proqinase Kinase profiling; format: biochemical; conditions: read-out: % inhibition at 100nM
T8 construct: purchased DiscoverX

MAP2K1 = target: T9, MAP2K1 (Homo sapiens, UniProt Q02750); assay: Proqinase Kinase profiling; format: biochemical; conditions: read-out: % inhibition at 100nM
T9 construct: purchased DiscoverX

PIM3 = target: T10, PIM3 (Homo sapiens, UniProt Q86V86); assay: Proqinase Kinase profiling; format: biochemical; conditions: read-out: % inhibition at 100nM
T10 construct: purchased DiscoverX

JAK2 = target: T11, JAK2 (Homo sapiens, UniProt O60674); assay: Proqinase Kinase profiling; format: biochemical; conditions: read-out: % inhibition at 100nM
T11 construct: purchased DiscoverX

DYRK2 = target: T12, DYRK2 (Homo sapiens, UniProt Q92630); assay: Proqinase Kinase profiling; format: biochemical; conditions: read-out: % inhibition at 100nM
T12 construct: purchased DiscoverX

MKNK2 = target: T13, MKNK2 (Homo sapiens, UniProt Q9HBH9); assay: Proqinase Kinase profiling; format: biochemical; conditions: read-out: % inhibition at 100nM
T13 construct: purchased DiscoverX

PTK2B = target: T14, PTK2B (Homo sapiens, UniProt Q14289); assay: Proqinase Kinase profiling; format: biochemical; conditions: read-out: % inhibition at 100nM
T14 construct: purchased DiscoverX

MAP3K9 = target: T15, MAP3K9 (Homo sapiens, UniProt P80192); assay: Proqinase Kinase profiling; format: biochemical; conditions: read-out: % inhibition at 100nM
T15 construct: purchased DiscoverX

GSK3A = target: T16, GSK3A (Homo sapiens, UniProt P49840); assay: Proqinase Kinase profiling; format: biochemical; conditions: read-out: % inhibition at 100nM
T16 construct: purchased DiscoverX

FGR = target: T17, FGR (Homo sapiens, UniProt P09769); assay: Proqinase Kinase profiling; format: biochemical; conditions: read-out: % inhibition at 100nM
T17 construct: purchased DiscoverX

EGFR_T790M_L858R = target: T18, EGFR_T790M_L858R (Homo sapiens, UniProt P00533, L858R/T790M); assay: Proqinase Kinase profiling; format: biochemical; conditions: read-out: % inhibition at 100nM
T18 construct: purchased DiscoverX

HCK = target: T19, HCK (Homo sapiens, UniProt P08631); assay: Proqinase Kinase profiling; format: biochemical; conditions: read-out: % inhibition at 100nM
T19 construct: purchased DiscoverX

BTK = target: T20, BTK (Homo sapiens, UniProt Q06187); assay: Proqinase Kinase profiling; format: biochemical; conditions: read-out: % inhibition at 100nM
T20 construct: purchased DiscoverX

SYK = target: T21, SYK (Homo sapiens, UniProt P43405); assay: Proqinase Kinase profiling; format: biochemical; conditions: read-out: % inhibition at 100nM
T21 construct: purchased DiscoverX

DYRK1A = target: T22, DYRK1A (Homo sapiens, UniProt Q13627); assay: Proqinase Kinase profiling; format: biochemical; conditions: read-out: % inhibition at 100nM
T22 construct: purchased DiscoverX

LIMK1 = target: T23, LIMK1 (Homo sapiens, UniProt P53667); assay: Proqinase Kinase profiling; format: biochemical; conditions: read-out: % inhibition at 100nM
T23 construct: purchased DiscoverX

ALK_C1156Y = target: T24, ALK_C1156Y (Homo sapiens, UniProt Q9UM73, C1156Y); assay: Proqinase Kinase profiling; format: biochemical; conditions: read-out: % inhibition at 100nM
T24 construct: purchased DiscoverX

TYRO3 = target: T25, TYRO3 (Homo sapiens, UniProt Q06418); assay: Proqinase Kinase profiling; format: biochemical; conditions: read-out: % inhibition at 100nM
T25 construct: purchased DiscoverX

EPHB3 = target: T26, EPHB3 (Homo sapiens, UniProt P54753); assay: Proqinase Kinase profiling; format: biochemical; conditions: read-out: % inhibition at 100nM
T26 construct: purchased DiscoverX

CDK4_cyclinD1 = target: T27, CDK4_cyclinD1 (Homo sapiens, UniProt P11802); assay: Proqinase Kinase profiling; format: biochemical; conditions: read-out: % inhibition at 100nM
T27 construct: purchased DiscoverX

SRMS = target: T28, SRMS (Homo sapiens, UniProt Q9H3Y6); assay: Proqinase Kinase profiling; format: biochemical; conditions: read-out: % inhibition at 100nM
T28 construct: purchased DiscoverX

CAMK2D = target: T29, CAMK2D (Homo sapiens, UniProt Q13557); assay: Proqinase Kinase profiling; format: biochemical; conditions: read-out: % inhibition at 100nM
T29 construct: purchased DiscoverX

KIT_V654A = target: T30, KIT_V654A (Homo sapiens, UniProt P10721, V654A); assay: Proqinase Kinase profiling; format: biochemical; conditions: read-out: % inhibition at 100nM
T30 construct: purchased DiscoverX

SRPK1 = target: T31, SRPK1 (Homo sapiens, UniProt Q96SB4); assay: Proqinase Kinase profiling; format: biochemical; conditions: read-out: % inhibition at 100nM
T31 construct: purchased DiscoverX

PRKG2 = target: T32, PRKG2 (Homo sapiens, UniProt Q13237); assay: Proqinase Kinase profiling; format: biochemical; conditions: read-out: % inhibition at 100nM
T32 construct: purchased DiscoverX

MET_D1228H = target: T33, MET_D1228H (Homo sapiens, UniProt P08581, D1228H); assay: Proqinase Kinase profiling; format: biochemical; conditions: read-out: % inhibition at 100nM
T33 construct: purchased DiscoverX

MET_Y1230D = target: T34, MET_Y1230D (Homo sapiens, UniProt P08581, Y1230D); assay: Proqinase Kinase profiling; format: biochemical; conditions: read-out: % inhibition at 100nM
T34 construct: purchased DiscoverX

STK33 = target: T35, STK33 (Homo sapiens, UniProt Q9BYT3); assay: Proqinase Kinase profiling; format: biochemical; conditions: read-out: % inhibition at 100nM
T35 construct: purchased DiscoverX

MET_Y1230C = target: T36, MET_Y1230C (Homo sapiens, UniProt P08581, Y1230C); assay: Proqinase Kinase profiling; format: biochemical; conditions: read-out: % inhibition at 100nM
T36 construct: purchased DiscoverX

KIT_T670I = target: T37, KIT_T670I (Homo sapiens, UniProt P10721, T670I); assay: Proqinase Kinase profiling; format: biochemical; conditions: read-out: % inhibition at 100nM
T37 construct: purchased DiscoverX

ABL2 = target: T38, ABL2 (Homo sapiens, UniProt P42684); assay: Proqinase Kinase profiling; format: biochemical; conditions: read-out: % inhibition at 100nM
T38 construct: purchased DiscoverX

EGFR_L858R = target: T39, EGFR_L858R (Homo sapiens, UniProt P00533, L858R); assay: Proqinase Kinase profiling; format: biochemical; conditions: read-out: % inhibition at 100nM
T39 construct: purchased DiscoverX

WT ALK2 receptor = target: T40, WT ALK2 receptor (Homo sapiens, UniProt Q04771); assay: BRE-LUC reporter assay in C2C12 cells cotransfected with WT ALK2; format: cell-based; conditions: BMP-6 50 ng/mL 16 hours, 30-min preincubation, read-out: ALK2wt BMP-6 IC50
T40 construct: expressed in transfected cells; host or cells: C2C12 murine myofibroblast cells
Procedure: For luciferase reporter assays, cells were seeded in 24-well plates and transfected with DharmaFECT Duo (Fisher Scientific, Landsmeer, The Netherlands), following the recommendations of the manufacturer. 48 hours after transfection the cells were harvested and lysed. […] Each transfection mixture was equalized with empty vector when necessary and every experiment was performed in triplicate.

T18 sequence (P00533 25-1210 T790M/L858R): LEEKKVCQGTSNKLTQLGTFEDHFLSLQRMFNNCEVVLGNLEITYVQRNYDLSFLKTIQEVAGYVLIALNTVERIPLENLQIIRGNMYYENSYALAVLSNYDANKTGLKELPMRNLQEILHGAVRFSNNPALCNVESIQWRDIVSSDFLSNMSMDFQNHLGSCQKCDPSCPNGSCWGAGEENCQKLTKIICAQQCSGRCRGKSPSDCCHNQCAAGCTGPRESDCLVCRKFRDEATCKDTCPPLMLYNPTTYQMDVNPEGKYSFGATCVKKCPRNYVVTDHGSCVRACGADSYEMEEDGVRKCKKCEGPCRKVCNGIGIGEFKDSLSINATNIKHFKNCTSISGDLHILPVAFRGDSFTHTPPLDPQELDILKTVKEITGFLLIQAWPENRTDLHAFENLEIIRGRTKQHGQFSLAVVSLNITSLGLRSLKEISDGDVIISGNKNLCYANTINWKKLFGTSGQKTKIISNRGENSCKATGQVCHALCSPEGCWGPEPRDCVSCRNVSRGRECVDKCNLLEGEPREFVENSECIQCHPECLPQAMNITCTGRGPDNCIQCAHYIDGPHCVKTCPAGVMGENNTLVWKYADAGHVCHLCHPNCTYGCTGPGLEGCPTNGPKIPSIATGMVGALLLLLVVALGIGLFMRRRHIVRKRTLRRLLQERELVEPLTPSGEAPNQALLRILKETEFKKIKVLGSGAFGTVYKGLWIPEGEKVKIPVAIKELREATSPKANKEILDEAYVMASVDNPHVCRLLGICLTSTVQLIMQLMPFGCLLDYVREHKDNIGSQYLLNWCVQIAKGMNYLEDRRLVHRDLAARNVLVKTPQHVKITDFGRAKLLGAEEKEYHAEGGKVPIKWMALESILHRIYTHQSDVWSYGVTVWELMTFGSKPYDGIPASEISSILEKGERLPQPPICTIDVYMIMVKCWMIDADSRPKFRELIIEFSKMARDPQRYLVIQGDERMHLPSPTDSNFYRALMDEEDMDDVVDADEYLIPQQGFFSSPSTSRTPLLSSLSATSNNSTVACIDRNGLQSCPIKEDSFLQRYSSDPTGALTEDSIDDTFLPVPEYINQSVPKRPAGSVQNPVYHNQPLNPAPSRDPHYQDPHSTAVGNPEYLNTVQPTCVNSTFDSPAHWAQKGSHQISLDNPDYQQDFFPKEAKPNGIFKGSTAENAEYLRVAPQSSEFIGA
T1 sequence (P07949 29-1114 M918T): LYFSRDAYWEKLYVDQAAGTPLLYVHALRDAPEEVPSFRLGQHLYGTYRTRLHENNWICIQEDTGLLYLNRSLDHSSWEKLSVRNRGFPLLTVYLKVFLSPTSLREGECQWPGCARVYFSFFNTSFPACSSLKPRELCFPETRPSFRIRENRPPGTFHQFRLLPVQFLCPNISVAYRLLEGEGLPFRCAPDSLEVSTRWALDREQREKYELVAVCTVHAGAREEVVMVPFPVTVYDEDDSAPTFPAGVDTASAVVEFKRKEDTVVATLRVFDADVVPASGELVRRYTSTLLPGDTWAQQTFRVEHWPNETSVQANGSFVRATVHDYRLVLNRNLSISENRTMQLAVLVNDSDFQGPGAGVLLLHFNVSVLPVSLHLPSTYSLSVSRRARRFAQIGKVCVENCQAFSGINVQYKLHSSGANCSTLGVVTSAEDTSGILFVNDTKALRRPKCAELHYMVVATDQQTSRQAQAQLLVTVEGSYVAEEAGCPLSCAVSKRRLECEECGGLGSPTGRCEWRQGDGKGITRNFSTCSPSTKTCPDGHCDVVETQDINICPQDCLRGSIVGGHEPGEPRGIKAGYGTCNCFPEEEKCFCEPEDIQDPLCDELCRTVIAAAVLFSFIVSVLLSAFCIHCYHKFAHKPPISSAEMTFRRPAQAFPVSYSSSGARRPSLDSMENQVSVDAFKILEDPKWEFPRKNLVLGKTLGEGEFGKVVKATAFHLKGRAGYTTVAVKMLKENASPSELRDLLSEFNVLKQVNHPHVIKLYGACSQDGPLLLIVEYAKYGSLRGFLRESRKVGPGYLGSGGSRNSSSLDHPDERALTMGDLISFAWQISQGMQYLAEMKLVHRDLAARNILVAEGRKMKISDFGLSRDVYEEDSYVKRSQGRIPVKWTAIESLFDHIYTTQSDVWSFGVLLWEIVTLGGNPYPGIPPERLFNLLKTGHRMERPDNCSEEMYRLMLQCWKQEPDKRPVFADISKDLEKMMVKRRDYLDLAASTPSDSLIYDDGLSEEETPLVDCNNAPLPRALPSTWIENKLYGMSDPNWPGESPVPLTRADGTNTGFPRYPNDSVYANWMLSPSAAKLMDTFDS
T37 sequence (P10721 26-976 T670I): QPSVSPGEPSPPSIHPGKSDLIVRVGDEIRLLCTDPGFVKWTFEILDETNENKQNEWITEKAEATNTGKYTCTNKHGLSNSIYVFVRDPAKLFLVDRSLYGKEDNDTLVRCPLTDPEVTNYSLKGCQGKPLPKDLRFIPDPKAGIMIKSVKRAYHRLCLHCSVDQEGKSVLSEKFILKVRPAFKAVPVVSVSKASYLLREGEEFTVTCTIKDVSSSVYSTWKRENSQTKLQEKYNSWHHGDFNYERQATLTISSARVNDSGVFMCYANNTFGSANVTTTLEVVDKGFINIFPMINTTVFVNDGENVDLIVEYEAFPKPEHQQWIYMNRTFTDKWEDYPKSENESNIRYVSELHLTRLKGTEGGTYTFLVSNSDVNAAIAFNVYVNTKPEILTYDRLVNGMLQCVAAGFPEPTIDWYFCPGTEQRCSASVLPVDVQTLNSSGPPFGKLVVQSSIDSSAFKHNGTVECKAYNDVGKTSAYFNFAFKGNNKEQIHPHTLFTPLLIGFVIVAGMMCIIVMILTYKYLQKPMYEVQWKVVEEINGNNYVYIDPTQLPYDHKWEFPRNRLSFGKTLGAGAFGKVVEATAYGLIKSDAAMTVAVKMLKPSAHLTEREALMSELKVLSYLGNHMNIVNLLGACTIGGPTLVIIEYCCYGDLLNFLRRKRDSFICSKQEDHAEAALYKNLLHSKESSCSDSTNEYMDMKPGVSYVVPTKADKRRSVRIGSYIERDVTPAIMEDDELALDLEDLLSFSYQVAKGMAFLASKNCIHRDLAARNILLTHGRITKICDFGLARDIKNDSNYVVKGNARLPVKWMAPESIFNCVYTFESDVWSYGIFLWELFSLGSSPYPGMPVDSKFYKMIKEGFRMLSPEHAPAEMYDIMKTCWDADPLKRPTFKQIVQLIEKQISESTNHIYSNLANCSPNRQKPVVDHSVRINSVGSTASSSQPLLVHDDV
T2 sequence (Q8IW41 whole entry): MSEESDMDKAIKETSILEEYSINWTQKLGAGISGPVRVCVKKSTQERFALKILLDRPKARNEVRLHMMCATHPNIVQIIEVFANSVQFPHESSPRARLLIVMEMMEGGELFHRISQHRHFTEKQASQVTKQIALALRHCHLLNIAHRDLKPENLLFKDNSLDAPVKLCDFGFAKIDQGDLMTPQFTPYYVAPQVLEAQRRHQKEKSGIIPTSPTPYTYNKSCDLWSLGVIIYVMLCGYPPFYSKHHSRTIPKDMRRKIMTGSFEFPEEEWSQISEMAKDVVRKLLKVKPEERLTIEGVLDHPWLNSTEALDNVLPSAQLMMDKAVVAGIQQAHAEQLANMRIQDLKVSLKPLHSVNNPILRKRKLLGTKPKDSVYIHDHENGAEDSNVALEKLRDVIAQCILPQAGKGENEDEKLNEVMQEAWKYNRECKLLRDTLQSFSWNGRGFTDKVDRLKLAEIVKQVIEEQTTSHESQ
T27 sequence (P11802 whole entry): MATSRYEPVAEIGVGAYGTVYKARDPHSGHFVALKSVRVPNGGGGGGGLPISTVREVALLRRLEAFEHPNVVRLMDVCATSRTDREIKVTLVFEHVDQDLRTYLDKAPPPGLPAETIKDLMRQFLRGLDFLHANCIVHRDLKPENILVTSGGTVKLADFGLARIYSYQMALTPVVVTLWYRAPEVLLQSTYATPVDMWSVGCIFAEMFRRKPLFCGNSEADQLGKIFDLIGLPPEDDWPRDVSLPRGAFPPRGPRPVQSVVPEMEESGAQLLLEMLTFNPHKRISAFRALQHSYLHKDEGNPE
T27 sequence (P24385 whole entry partner): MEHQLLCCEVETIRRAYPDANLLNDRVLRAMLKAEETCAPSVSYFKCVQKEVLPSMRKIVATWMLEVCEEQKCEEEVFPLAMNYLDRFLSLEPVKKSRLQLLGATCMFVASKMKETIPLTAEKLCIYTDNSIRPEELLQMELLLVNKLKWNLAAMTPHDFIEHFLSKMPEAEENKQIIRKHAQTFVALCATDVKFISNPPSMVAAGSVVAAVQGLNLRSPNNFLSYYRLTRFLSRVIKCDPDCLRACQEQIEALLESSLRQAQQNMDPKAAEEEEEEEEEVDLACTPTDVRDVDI
T9 sequence (Q02750 whole entry): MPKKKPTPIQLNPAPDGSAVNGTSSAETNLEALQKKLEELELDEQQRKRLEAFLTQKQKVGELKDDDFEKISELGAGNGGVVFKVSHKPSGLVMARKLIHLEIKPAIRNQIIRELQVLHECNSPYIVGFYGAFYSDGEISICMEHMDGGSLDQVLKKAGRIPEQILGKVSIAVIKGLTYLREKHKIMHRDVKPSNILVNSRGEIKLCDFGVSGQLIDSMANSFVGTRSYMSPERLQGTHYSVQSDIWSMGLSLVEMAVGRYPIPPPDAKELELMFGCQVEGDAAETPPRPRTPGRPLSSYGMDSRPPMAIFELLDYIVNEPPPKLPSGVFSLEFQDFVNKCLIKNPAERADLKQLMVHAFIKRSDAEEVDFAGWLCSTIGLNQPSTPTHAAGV

Clc1cc2cc(c1)-c1cnn3ccc(nc13)NCCOCCO2 [OD36]
inhibition at 0.1 µM (RET_M918T): 33%
inhibition at 0.1 µM (MAPKAPK5): 12%
inhibition at 0.1 µM (CAMK2A): 18%
inhibition at 0.1 µM (MAP4K5): 18%
inhibition at 0.1 µM (CSNK1G1): 1%
inhibition at 0.1 µM (MAP3K3): 1%
inhibition at 0.1 µM (STK24): 8%
inhibition at 0.1 µM (ADRBK1): 4%
inhibition at 0.1 µM (MAP2K1): 6%
inhibition at 0.1 µM (PIM3): 25%
inhibition at 0.1 µM (JAK2): 7%
inhibition at 0.1 µM (DYRK2): 2%
inhibition at 0.1 µM (MKNK2): 28%
inhibition at 0.1 µM (PTK2B): -2%
inhibition at 0.1 µM (MAP3K9): 13%
inhibition at 0.1 µM (GSK3A): 6%
inhibition at 0.1 µM (FGR): 26%
inhibition at 0.1 µM (EGFR_T790M_L858R): -13%
inhibition at 0.1 µM (HCK): 29%
inhibition at 0.1 µM (BTK): 3%
inhibition at 0.1 µM (SYK): -1%
inhibition at 0.1 µM (DYRK1A): 7%
inhibition at 0.1 µM (LIMK1): 16%
inhibition at 0.1 µM (ALK_C1156Y): 13%
inhibition at 0.1 µM (TYRO3): 5%
inhibition at 0.1 µM (EPHB3): 1%
inhibition at 0.1 µM (CDK4_cyclinD1): 8%
inhibition at 0.1 µM (SRMS): 11%
inhibition at 0.1 µM (CAMK2D): 6%
inhibition at 0.1 µM (KIT_V654A): 5%
inhibition at 0.1 µM (SRPK1): 10%
inhibition at 0.1 µM (PRKG2): 14%
inhibition at 0.1 µM (MET_D1228H): 8%
inhibition at 0.1 µM (MET_Y1230D): -6%
inhibition at 0.1 µM (STK33): -1%
inhibition at 0.1 µM (MET_Y1230C): 7%
inhibition at 0.1 µM (KIT_T670I): 9%
inhibition at 0.1 µM (ABL2): 3%
inhibition at 0.1 µM (EGFR_L858R): 11%
IC50 (WT ALK2 receptor): 308 nM

Cc1cc2cc(c1)-c1cnn3ccc(nc13)NCCNC(=O)CCN(C)C2 [OD52]
inhibition at 0.1 µM (RET_M918T): 33%
inhibition at 0.1 µM (MAPKAPK5): 26%
inhibition at 0.1 µM (CAMK2A): 25%
inhibition at 0.1 µM (MAP4K5): 19%
inhibition at 0.1 µM (CSNK1G1): 16%
inhibition at 0.1 µM (MAP3K3): 13%
inhibition at 0.1 µM (STK24): 12%
inhibition at 0.1 µM (ADRBK1): 10%
inhibition at 0.1 µM (MAP2K1): 10%
inhibition at 0.1 µM (PIM3): 10%
inhibition at 0.1 µM (JAK2): 9%
inhibition at 0.1 µM (DYRK2): 9%
inhibition at 0.1 µM (MKNK2): 9%
inhibition at 0.1 µM (PTK2B): 6%
inhibition at 0.1 µM (MAP3K9): 4%
inhibition at 0.1 µM (GSK3A): 1%
inhibition at 0.1 µM (FGR): 0%
inhibition at 0.1 µM (EGFR_T790M_L858R): 0%
inhibition at 0.1 µM (HCK): 0%
inhibition at 0.1 µM (BTK): -2%
inhibition at 0.1 µM (SYK): -2%
inhibition at 0.1 µM (DYRK1A): -4%
inhibition at 0.1 µM (LIMK1): -5%
inhibition at 0.1 µM (ALK_C1156Y): -6%
inhibition at 0.1 µM (TYRO3): -7%
inhibition at 0.1 µM (EPHB3): -8%
inhibition at 0.1 µM (CDK4_cyclinD1): -9%
inhibition at 0.1 µM (SRMS): -9%
inhibition at 0.1 µM (CAMK2D): -9%
inhibition at 0.1 µM (KIT_V654A): -9%
inhibition at 0.1 µM (SRPK1): -9%
inhibition at 0.1 µM (PRKG2): -10%
inhibition at 0.1 µM (MET_D1228H): -11%
inhibition at 0.1 µM (MET_Y1230D): -12%
inhibition at 0.1 µM (STK33): -13%
inhibition at 0.1 µM (MET_Y1230C): -13%
inhibition at 0.1 µM (KIT_T670I): -23%
inhibition at 0.1 µM (ABL2): -23%
inhibition at 0.1 µM (EGFR_L858R): -23%
IC50 (WT ALK2 receptor): 1570 nM
